Reference: patent publication US8455214B2, “Methods for determining chemotherapeutic agents targeting alpha-glucan pathways and uses thereof” (priority 2009, dated 2013)

System: Mtb ΔRv3032 mutant
Type: cell-based

For `OCC1=C[C@@H](N[C@H]2C[C@H](CO)[C@@H](O[C@H]3O[C@@H](CO)[C@H](O)[C@@H](O)[C@@H]3O)[C@H](O)[C@H]2O)[C@H](O)[C@@H](O)[C@@H]1O` [VA, Validamycin A], the “killing (reduction of viability, CFU)” value (over 7 days, cultures inoculated at 5×10^6 CFU/ml) was 3 log and the “effect of over-expression of the putative target TreS” value (ΔRv3032 mutant with TreS from an integrative single-copy plasmid) was “marked resistance”.
